Data as given in patent US20220009920A1 (GB005, Inc., priority 2020, published 2022).

Legend:
Test in all cases: Large panel kinase profiling
Type in all cases: biochemical
Settings in all cases: 1 μM test article, 1 mM ATP
[1] = target: FES (Homo sapiens, UniProt P07332)
Summary of the method: (§1)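 CSox-Sensor fluorescence readout; test article 1 μM, ATP 1 mM, 30° C.; kinetic reads at 1-min intervals, Ex 360/Em 485 nm.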

[2] = target: T1, JAK1(JH1JH2) (Homo sapiens, UniProt P23458)
T1 construct: JAK1(JH1JH2)
T1 sequence (P23458 561-1154 limits assumed, species assumed): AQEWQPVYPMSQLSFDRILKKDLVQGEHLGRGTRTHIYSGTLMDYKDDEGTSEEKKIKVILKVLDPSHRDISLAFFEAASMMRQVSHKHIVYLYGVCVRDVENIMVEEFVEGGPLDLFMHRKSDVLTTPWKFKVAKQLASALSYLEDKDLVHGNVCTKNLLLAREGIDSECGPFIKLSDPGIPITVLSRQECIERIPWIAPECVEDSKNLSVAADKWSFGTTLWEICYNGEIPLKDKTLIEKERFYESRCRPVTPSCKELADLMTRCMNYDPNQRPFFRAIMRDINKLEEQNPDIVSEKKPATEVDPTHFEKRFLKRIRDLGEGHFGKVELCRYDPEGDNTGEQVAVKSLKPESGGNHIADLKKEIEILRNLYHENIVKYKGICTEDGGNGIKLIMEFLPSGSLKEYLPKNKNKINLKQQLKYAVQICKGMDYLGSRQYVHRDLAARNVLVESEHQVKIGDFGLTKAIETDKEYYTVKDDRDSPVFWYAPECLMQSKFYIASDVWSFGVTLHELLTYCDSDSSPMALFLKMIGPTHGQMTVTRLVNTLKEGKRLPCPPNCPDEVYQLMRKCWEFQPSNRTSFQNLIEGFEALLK
Summary of the method: as §1

[3] = target: T2, MAPK1/ERK2 (Homo sapiens, UniProt P28482)
T2 construct: AssayQuant Technologies, Inc. (service provider)
T2 sequence (P28482 whole entry): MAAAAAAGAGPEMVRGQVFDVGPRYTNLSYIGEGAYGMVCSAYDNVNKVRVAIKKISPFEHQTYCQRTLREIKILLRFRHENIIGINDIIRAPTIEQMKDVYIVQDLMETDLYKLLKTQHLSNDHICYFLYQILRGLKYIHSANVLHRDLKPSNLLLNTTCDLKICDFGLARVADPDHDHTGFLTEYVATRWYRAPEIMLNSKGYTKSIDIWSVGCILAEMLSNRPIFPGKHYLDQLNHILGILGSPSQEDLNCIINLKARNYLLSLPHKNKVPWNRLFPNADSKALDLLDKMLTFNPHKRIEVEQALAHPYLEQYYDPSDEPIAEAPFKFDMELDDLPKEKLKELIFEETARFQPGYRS
Summary of the method: as §1

[4] = target: T3, MARK1 (Homo sapiens, UniProt Q9P0L2)
T3 construct: AssayQuant Technologies, Inc. (assay service)
T3 sequence (Q9P0L2 whole entry, species assumed): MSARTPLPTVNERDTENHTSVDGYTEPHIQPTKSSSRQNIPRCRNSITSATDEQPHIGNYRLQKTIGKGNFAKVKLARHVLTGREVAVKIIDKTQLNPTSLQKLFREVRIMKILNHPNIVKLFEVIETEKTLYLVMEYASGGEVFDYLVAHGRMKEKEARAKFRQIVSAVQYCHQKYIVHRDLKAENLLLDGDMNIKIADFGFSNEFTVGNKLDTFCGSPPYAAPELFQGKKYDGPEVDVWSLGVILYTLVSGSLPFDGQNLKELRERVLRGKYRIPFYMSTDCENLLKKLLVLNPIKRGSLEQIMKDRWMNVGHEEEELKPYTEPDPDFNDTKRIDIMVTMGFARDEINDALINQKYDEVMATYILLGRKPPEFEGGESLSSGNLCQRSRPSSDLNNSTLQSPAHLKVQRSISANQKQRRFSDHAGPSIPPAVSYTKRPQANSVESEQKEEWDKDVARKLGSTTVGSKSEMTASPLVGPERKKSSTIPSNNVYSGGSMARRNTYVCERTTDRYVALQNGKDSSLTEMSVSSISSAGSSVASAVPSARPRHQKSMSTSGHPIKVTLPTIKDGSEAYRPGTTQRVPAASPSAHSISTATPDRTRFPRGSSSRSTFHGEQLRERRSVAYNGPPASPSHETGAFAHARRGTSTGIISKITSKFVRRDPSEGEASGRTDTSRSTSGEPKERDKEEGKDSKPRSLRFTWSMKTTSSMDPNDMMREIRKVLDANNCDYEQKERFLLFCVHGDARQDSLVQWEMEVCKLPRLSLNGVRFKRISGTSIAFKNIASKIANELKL
Summary of the method: as §1

[5] = target: T4, SK2 (Homo sapiens, UniProt Q9H0K1)
T4 construct: AssayQuant Technologies, Inc. (contract assay)
T4 sequence (Q9H0K1 whole entry): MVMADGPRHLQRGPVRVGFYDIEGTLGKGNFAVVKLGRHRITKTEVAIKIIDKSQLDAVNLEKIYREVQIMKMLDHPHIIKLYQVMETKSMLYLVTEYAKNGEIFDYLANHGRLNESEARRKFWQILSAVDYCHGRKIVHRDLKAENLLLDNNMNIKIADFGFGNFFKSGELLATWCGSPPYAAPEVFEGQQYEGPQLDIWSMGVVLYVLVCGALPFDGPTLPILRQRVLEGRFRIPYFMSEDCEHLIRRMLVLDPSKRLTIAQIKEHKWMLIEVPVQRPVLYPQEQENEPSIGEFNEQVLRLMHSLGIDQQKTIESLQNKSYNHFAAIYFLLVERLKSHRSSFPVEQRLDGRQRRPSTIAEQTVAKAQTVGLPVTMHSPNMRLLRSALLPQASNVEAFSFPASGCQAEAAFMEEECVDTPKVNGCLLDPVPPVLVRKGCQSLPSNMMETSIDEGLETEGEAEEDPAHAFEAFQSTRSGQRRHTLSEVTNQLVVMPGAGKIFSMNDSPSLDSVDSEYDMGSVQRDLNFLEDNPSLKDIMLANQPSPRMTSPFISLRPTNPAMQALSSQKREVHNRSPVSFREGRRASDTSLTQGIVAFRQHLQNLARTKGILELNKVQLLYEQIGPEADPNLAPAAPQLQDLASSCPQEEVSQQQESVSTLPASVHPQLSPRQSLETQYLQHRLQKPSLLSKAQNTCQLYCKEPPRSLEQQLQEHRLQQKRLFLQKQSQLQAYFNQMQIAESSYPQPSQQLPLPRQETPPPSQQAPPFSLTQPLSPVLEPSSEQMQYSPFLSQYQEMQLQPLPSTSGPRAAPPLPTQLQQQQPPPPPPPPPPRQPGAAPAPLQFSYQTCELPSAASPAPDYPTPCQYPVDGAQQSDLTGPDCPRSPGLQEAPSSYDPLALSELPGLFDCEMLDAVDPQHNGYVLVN
Summary of the method: as §1

[6] = target: T5, STK10/LOK (Homo sapiens, UniProt O94804)
T5 construct: AssayQuant Technologies, Inc. (contract assay)
T5 sequence (O94804 whole entry): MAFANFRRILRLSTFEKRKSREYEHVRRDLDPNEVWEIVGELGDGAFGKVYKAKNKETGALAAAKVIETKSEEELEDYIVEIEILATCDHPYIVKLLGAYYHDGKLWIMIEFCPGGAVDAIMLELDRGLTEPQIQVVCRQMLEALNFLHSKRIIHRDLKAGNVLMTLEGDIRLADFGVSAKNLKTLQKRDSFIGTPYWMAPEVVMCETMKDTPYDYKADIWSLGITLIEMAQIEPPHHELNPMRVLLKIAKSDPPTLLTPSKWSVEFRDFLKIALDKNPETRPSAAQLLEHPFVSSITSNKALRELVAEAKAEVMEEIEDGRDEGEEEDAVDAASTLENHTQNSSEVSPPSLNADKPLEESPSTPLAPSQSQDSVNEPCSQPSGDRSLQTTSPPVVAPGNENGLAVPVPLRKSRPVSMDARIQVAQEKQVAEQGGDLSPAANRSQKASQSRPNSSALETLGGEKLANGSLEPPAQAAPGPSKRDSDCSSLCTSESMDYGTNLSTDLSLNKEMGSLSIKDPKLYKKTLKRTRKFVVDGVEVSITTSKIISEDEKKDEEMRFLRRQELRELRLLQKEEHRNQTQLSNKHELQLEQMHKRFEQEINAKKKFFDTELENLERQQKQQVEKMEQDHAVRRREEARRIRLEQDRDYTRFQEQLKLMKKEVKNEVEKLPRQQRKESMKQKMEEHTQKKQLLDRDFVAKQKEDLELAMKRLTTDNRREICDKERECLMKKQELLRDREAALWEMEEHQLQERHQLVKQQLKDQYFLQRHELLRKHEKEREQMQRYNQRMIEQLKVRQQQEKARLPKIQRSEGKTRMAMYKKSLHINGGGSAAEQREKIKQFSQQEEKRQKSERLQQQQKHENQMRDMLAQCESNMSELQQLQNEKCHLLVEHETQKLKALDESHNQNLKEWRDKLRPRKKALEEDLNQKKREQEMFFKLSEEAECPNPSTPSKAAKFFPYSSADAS
Summary of the method: as §1

[7] = target: T6, ULK1 (Homo sapiens, UniProt O75385)
T6 construct: AssayQuant Technologies, Inc. (contract laboratory that ran the panel)
T6 sequence (O75385 1-1050): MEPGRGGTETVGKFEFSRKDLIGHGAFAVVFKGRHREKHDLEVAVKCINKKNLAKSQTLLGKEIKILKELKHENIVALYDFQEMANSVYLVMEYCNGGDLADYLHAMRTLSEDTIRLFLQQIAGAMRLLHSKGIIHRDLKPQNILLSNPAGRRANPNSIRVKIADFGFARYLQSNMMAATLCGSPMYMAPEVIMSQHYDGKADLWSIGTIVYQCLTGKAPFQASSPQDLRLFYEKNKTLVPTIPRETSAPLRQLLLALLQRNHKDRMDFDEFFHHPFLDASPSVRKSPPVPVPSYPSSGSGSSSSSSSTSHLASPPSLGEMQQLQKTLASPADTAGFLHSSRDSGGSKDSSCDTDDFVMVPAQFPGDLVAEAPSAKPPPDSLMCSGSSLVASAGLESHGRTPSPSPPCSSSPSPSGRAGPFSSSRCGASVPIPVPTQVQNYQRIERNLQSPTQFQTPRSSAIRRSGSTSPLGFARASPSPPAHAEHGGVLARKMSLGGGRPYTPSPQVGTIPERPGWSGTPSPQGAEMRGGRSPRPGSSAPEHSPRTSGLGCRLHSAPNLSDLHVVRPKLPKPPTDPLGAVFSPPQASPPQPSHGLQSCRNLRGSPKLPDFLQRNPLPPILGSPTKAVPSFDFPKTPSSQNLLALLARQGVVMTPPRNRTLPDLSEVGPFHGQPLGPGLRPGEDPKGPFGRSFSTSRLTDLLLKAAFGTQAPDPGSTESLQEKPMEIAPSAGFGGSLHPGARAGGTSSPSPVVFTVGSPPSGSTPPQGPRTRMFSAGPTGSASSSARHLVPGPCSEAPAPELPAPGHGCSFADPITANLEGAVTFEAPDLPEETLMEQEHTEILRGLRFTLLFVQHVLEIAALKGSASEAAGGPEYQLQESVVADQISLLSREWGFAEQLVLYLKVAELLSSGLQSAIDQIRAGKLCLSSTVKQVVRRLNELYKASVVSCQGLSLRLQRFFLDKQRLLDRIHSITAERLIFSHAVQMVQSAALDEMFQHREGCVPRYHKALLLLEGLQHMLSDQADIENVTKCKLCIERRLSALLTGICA
Summary of the method: as §1

[8] = target: T7, ZAP70 (Homo sapiens, UniProt P43403)
T7 construct: AssayQuant Technologies, Inc. (contract laboratory that ran the panel)
T7 sequence (P43403 1-619): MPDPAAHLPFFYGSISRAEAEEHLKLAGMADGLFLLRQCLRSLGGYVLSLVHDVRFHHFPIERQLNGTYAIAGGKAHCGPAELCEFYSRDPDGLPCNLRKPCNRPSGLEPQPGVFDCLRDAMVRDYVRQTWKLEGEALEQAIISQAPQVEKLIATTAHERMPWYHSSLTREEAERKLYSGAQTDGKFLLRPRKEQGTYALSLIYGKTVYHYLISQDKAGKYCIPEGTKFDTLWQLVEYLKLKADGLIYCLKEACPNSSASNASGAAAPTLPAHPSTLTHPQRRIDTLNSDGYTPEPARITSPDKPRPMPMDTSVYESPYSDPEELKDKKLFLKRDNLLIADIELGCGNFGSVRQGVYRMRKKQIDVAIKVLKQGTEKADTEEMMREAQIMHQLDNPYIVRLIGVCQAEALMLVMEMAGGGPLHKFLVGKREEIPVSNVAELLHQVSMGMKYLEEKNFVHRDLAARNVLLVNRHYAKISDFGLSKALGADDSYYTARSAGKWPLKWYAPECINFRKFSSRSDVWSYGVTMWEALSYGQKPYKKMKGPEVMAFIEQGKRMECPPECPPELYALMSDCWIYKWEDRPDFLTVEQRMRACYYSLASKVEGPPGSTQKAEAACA
Summary of the method: as §1

Sequence of FES (P07332 whole entry, species assumed): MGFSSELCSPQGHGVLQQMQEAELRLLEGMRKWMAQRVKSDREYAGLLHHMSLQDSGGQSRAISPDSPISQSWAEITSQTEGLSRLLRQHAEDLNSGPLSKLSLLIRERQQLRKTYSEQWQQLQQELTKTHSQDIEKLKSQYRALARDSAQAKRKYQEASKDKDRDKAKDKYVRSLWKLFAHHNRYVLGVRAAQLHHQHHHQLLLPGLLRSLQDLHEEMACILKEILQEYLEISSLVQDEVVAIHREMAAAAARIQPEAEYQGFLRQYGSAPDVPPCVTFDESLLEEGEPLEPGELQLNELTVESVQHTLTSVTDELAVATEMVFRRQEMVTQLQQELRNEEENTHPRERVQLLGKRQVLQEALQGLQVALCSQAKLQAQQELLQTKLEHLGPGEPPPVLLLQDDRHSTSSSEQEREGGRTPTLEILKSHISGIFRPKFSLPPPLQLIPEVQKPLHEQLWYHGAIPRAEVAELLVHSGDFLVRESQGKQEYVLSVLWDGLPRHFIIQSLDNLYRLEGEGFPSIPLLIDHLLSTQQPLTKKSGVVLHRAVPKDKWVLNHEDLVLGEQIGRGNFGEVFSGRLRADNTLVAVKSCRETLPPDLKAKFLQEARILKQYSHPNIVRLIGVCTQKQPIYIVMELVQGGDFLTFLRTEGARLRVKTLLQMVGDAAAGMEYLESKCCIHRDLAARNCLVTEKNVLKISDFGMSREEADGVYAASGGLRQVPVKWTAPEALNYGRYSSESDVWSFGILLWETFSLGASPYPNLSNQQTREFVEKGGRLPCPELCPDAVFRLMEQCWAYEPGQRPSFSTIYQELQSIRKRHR

C=CC(=O)N1CCCC(c2c(F)cc(C(N)=O)c3[nH]c4c(c23)CCCCC4)C1 (single isomer, unassigned) [Compound 5-6]
inhibition at 1 µM [1]: 24.5%
inhibition at 1 µM [2]: 8.5%
inhibition at 1 µM [3]: -4.4%
inhibition at 1 µM [4]: 15.4%
inhibition at 1 µM [5]: -0.1%
inhibition at 1 µM [6]: 3.1%
inhibition at 1 µM [7]: -3.1%
inhibition at 1 µM [8]: -22.5%

C=CC(=O)N1CCC[C@@H](c2c(F)cc(C(N)=O)c3[nH]c4c(c23)CC2(CC4)CC2)C1 [Compound 6-2, (S)-5-(1-acryloylpiperidin-3-yl)-6-fluoro-1,2,4,9-tetrahydrospiro[carbazole-3,1′-cyclopropane]-8-carboxamide]
inhibition at 1 µM [1]: -33%
inhibition at 1 µM [2]: 29.4%
inhibition at 1 µM [3]: -3.8%
inhibition at 1 µM [4]: -63.9%
inhibition at 1 µM [5]: 7.7%
inhibition at 1 µM [6]: 12.2%
inhibition at 1 µM [7]: -23.6%
inhibition at 1 µM [8]: 1.7%

C=CC(=O)N1CCC[C@@H](c2c(F)cc(C(N)=O)c3[nH]c4c(c23)CCC4)C1 [Compound 10-2, (S)-8-(1-acryloylpiperidin-3-yl)-7-fluoro-1,2,3,4-tetrahydrocyclo-penta[b]indole-5-carboxamide]
inhibition at 1 µM [1]: -31.2%
inhibition at 1 µM [2]: 14.8%
inhibition at 1 µM [3]: -8.8%
inhibition at 1 µM [4]: -12.9%
inhibition at 1 µM [5]: 23.9%
inhibition at 1 µM [6]: -8.7%
inhibition at 1 µM [7]: -6.1%
inhibition at 1 µM [8]: -9.5%
